Reference: ChEMBL document CHEMBL5252509, “In depth analysis of kinase cross screening data to identify chemical starting points for inhibition of the Nek family of kinases” (Medchemcomm, 2018)

Columns and labels:
[1] = target: T1, Serine/threonine-protein kinase Nek2 (Homo sapiens) (UniProt P51955); assay: Inhibition of NEK2 (unknown origin) at 1 uM relative to control
T1 sequence (whole entry): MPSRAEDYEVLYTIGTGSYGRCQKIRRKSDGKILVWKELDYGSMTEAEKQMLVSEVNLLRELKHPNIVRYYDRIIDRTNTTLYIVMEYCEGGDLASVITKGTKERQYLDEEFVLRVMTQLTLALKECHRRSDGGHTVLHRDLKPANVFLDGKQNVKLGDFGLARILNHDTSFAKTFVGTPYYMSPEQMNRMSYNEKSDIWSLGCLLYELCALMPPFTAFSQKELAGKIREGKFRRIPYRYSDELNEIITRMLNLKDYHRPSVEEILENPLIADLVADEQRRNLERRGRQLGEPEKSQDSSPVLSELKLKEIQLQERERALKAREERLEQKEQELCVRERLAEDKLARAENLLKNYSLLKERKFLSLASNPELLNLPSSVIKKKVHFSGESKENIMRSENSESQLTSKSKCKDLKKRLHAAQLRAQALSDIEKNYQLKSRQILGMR

[2] = target: Fibroblast growth factor receptor 3 (Homo sapiens) (UniProt P22607); assay: Inhibition of FGFR3 (unknown origin) at 1 uM relative to control
[3] = target: T2, Cytoplasmic tyrosine-protein kinase BMX (Homo sapiens) (UniProt P51813); assay: Inhibition of BMX (unknown origin) at 1 uM relative to control
T2 sequence (whole entry): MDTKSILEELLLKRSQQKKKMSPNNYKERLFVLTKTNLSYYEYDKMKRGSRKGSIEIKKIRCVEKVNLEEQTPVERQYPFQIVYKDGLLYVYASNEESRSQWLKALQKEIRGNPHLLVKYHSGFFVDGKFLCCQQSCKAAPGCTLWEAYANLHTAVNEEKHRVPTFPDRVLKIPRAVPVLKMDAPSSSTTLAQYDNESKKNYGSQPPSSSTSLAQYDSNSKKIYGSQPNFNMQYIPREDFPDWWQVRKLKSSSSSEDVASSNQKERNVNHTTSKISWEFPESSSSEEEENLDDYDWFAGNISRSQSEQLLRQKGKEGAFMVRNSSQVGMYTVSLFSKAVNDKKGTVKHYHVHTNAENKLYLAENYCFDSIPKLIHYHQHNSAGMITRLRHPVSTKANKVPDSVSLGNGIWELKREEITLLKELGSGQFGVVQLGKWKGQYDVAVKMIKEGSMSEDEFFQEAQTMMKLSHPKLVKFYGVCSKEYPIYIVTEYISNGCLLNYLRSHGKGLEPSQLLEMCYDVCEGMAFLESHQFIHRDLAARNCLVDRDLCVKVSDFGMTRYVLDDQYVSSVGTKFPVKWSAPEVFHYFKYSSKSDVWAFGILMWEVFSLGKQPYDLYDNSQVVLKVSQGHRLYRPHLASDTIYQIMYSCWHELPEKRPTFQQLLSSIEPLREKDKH

[4] = target: T3, Serine/threonine-protein kinase Nek10 (Homo sapiens) (UniProt Q6ZWH5); assay: Inhibition of NEK10 (unknown origin) at 1 uM relative to control
T3 sequence (whole entry): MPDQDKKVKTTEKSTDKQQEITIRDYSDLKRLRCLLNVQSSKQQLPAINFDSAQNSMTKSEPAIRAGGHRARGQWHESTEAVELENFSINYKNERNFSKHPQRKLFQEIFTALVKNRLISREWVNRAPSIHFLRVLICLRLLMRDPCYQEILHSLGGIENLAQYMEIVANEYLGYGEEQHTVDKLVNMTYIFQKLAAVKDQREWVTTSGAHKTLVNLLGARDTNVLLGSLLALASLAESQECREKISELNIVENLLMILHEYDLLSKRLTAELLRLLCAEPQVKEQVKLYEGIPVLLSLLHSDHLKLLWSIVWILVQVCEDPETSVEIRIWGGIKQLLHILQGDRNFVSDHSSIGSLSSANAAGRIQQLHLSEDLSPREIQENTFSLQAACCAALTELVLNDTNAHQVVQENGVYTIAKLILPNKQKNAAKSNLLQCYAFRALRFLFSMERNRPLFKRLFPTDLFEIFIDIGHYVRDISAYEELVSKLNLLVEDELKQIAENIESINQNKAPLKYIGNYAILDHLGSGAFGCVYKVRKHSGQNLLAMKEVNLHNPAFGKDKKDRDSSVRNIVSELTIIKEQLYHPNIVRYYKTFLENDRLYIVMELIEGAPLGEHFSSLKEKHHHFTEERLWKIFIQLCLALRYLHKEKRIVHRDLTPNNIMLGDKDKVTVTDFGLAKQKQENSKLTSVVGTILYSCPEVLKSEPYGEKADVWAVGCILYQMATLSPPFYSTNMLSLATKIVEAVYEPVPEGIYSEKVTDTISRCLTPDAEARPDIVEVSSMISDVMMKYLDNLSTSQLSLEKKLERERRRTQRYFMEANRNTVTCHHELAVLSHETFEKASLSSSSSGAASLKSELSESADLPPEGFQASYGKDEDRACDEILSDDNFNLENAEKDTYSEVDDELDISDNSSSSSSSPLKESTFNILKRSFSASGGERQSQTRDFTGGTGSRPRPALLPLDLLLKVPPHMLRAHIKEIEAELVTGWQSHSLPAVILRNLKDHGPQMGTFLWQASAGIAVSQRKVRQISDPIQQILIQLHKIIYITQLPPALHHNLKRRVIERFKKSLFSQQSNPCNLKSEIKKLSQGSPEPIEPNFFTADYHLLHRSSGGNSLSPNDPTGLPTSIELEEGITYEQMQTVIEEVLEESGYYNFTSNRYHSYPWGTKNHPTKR

[5] = target: Angiopoietin-1 receptor (Homo sapiens) (UniProt Q02763); assay: Inhibition of TIE2 (unknown origin) at 1 uM relative to control
[6] = target: T4, Mitogen-activated protein kinase kinase kinase 19 (Homo sapiens) (UniProt Q56UN5); assay: Inhibition of YSK4 (unknown origin) at 1 uM relative to control
T4 sequence (whole entry): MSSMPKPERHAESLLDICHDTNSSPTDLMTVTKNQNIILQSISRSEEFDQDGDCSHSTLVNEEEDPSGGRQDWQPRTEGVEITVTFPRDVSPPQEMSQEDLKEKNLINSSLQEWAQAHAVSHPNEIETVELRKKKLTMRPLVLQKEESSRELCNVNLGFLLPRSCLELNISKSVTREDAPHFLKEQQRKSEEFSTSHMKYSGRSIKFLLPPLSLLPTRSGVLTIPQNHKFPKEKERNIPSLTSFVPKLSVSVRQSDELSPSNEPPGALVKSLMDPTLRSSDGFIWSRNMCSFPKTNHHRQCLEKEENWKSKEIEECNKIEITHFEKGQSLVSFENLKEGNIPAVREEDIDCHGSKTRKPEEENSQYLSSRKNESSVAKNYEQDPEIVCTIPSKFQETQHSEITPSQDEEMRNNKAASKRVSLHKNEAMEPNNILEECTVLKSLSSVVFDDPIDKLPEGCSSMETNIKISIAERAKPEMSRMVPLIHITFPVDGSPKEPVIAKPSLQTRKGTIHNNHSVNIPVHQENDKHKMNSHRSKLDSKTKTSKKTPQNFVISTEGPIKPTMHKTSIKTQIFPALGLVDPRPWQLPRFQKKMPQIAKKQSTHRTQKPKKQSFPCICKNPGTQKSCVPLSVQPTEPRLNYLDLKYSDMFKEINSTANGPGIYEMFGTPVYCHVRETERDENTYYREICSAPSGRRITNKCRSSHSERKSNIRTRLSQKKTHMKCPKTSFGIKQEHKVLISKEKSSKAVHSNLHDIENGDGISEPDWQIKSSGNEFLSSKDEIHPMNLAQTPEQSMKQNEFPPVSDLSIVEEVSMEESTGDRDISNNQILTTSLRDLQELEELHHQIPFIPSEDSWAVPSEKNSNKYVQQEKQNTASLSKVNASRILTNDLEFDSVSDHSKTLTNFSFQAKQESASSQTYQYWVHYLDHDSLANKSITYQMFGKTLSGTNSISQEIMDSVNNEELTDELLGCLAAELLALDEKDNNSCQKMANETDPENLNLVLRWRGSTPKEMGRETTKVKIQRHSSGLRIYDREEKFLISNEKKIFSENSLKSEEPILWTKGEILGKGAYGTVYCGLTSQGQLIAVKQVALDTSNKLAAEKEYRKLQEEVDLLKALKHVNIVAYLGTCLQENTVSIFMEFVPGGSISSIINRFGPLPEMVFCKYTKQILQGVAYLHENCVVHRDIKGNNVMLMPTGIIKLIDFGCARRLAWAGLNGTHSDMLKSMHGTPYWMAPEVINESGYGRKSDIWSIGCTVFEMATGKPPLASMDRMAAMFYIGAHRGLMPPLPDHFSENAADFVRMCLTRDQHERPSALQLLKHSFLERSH

[7] = target: T5, Serine/threonine-protein kinase Nek5 (Homo sapiens) (UniProt Q6P3R8); assay: Inhibition of NEK5 (unknown origin) at 1 uM relative to control
T5 sequence (whole entry): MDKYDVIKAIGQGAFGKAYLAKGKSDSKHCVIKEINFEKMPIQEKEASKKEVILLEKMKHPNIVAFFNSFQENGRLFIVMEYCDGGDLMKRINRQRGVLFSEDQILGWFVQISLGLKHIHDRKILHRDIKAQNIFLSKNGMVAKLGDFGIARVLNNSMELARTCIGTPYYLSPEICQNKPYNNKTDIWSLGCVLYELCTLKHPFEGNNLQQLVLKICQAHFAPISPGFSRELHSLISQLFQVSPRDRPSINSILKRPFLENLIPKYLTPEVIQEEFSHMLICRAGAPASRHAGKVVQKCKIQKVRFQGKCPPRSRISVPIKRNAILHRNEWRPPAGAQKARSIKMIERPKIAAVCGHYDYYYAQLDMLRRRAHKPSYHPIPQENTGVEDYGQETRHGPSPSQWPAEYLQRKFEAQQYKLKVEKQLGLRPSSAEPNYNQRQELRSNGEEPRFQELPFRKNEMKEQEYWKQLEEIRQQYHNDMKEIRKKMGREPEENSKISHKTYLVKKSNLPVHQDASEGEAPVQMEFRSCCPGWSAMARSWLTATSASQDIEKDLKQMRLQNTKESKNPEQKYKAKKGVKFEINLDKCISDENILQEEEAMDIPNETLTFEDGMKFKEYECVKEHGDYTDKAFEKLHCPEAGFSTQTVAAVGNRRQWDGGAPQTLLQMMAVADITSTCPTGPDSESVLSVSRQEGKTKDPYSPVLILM

[8] = target: Serine/threonine-protein kinase Nek7 (Homo sapiens) (UniProt Q8TDX7); assay: Inhibition of NEK7 (unknown origin) at 1 uM relative to control
[9] = target: T6, Serine/threonine-protein kinase Nek3 (Homo sapiens) (UniProt P51956); assay: Inhibition of NEK3 (unknown origin) at 1 uM relative to control
T6 sequence (whole entry): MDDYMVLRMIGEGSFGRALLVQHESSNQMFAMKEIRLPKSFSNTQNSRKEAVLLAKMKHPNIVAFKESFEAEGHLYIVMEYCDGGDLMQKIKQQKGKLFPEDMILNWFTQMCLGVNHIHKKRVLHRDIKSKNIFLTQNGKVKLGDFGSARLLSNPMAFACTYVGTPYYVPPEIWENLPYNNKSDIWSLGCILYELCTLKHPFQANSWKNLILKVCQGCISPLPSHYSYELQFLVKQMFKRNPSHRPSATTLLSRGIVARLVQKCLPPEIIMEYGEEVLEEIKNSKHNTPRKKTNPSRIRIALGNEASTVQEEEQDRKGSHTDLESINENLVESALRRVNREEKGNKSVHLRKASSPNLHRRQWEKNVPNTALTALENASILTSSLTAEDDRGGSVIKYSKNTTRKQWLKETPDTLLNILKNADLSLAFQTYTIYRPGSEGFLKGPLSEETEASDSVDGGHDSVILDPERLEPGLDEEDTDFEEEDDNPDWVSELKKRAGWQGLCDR

[10] = target: T7, Serine/threonine-protein kinase Nek11 (Homo sapiens) (UniProt Q8NG66); assay: Inhibition of NEK11 (unknown origin) at 1 uM relative to control
T7 sequence (whole entry): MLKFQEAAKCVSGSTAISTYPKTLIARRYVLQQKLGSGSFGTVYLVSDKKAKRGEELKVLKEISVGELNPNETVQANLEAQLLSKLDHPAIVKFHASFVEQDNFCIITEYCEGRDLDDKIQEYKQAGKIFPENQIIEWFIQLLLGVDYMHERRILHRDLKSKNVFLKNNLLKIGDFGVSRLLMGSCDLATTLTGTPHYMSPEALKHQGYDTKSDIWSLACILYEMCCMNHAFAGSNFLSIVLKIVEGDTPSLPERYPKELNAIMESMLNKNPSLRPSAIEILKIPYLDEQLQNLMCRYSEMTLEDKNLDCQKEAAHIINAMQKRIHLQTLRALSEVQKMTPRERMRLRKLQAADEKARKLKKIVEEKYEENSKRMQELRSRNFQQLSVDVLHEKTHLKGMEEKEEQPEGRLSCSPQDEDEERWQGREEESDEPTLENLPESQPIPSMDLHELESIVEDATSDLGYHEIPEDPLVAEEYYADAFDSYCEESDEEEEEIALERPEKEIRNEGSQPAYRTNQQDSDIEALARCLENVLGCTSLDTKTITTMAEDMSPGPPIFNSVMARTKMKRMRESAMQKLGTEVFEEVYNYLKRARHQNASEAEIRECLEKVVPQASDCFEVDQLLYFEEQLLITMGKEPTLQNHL

[11] = target: Serine/threonine-protein kinase Nek6 (Homo sapiens) (UniProt Q9HC98); assay: Inhibition of NEK6 (unknown origin) at 1 uM relative to control
Chain of Serine/threonine-protein kinase Nek6 (Homo sapiens) (Q9HC98 whole entry): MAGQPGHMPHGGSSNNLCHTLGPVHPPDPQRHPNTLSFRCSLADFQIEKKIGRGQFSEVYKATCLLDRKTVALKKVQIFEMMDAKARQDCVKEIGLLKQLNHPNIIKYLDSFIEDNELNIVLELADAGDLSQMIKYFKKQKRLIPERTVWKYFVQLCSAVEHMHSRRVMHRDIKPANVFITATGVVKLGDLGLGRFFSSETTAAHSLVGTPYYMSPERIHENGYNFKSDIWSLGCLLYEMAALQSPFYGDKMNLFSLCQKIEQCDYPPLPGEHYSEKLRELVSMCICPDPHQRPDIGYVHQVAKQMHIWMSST

Chain of Fibroblast growth factor receptor 3 (Homo sapiens) (P22607 23-806 limits assumed): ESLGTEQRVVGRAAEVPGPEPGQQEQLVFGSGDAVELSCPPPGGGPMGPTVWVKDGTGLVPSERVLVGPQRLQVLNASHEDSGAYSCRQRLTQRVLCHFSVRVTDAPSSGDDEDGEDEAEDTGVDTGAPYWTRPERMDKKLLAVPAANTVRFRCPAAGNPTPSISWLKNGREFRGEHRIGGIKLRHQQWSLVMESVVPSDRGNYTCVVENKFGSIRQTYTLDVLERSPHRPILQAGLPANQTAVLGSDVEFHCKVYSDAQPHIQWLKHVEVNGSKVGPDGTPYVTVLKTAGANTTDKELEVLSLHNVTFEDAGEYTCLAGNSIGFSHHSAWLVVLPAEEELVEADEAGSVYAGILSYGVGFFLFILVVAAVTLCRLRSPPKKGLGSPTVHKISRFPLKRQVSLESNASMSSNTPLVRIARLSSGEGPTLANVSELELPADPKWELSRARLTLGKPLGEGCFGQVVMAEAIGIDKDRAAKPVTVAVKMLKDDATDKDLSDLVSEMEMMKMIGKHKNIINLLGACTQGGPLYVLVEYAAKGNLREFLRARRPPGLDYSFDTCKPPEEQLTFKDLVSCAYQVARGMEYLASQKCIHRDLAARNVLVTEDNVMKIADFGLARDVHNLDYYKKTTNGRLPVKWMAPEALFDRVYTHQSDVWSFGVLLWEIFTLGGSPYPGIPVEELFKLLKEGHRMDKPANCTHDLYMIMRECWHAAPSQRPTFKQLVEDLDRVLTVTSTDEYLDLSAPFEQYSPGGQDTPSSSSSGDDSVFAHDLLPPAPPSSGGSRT
Chain of Angiopoietin-1 receptor (Homo sapiens) (Q02763 whole entry): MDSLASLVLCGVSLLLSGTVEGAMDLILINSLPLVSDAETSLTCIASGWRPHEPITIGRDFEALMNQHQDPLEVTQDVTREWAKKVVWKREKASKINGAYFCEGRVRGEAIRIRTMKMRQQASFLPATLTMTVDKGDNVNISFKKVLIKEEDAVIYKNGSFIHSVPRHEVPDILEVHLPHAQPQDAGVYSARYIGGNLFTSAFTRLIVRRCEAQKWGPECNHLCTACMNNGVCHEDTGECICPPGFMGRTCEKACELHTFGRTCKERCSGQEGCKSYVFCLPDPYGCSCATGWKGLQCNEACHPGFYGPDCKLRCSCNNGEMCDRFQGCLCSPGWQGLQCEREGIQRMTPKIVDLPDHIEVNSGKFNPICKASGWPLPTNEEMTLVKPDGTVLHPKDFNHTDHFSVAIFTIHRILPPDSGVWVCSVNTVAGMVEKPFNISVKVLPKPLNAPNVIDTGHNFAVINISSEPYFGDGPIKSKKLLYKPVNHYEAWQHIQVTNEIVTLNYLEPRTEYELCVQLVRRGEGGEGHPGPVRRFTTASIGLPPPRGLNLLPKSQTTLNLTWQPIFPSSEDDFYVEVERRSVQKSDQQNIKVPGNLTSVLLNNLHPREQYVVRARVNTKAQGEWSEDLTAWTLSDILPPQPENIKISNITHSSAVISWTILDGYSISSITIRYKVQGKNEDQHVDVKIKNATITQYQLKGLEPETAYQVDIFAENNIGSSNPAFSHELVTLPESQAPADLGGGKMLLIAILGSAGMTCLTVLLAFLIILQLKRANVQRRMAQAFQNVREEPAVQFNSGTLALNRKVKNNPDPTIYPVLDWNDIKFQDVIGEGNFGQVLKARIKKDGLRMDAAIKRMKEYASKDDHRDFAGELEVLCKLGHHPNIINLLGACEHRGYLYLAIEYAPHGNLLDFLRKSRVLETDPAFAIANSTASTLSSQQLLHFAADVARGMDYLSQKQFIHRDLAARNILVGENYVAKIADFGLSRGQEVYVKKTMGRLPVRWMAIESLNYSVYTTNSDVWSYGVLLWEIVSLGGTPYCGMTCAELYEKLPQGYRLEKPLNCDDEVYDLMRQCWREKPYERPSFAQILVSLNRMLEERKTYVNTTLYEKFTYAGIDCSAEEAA
Chain of Serine/threonine-protein kinase Nek7 (Homo sapiens) (Q8TDX7 whole entry, looked up): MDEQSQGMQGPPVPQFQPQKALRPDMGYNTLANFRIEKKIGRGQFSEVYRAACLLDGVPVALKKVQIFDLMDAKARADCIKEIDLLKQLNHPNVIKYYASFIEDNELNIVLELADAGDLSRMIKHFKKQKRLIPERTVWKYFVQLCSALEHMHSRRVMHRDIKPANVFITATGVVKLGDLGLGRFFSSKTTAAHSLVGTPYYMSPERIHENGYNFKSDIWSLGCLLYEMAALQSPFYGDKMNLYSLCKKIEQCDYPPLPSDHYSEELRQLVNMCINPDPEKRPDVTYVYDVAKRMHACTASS

Compound | inhibition [1] [%] | inhibition [2] [%] | inhibition [3] [%] | inhibition [4] [%] | inhibition [5] [%] | inhibition [6] [%] | inhibition [7] [%] | inhibition [8] [%] | inhibition [9] [%] | inhibition [10] [%] | inhibition [11] [%]
CC[C@@H]1C(=O)N(C)c2cnc(Nc3ccc(C(=O)NC4CCN(C)CC4)cc3OC)nc2N1C1CCCC1 | 72 |  |  |  |  |  |  |  |  |  | 
NC(=O)c1nnc2ccccc2c1N |  | 90 | 90.1 | 85 | 98.7 | 88 |  |  |  |  | 
Cn1cc(-c2cccc3c(N)c(C(N)=O)nnc23)cn1 |  | 12 | 15 | 48 | 1 | 94.4 |  |  |  |  | 
Cc1cc2cn[nH]c2cc1-c1cccc2c(N)c(C(N)=O)nnc12 |  | 0 | 83 | 86 | 31 | 71 |  |  |  |  | 
CC(C)(C)c1nc(-c2cccc(NS(=O)(=O)c3c(F)cccc3F)c2F)c(-c2ccnc(N)n2)s1 | 7 |  |  | 56 |  |  | 75 | 1.6 | 100 | 0.2 | 0.3
